{
  "source": "paper PMC13493820",
  "about": "“Versatile Glycan Probes for Multiplatform Investigation of Glycan Interactions with Proteins, Viruses, and Cells” (Nature Communications, 2026)",
  "target": "T1, rhesus Langerin (Macaca mulatta, UniProt F7HNH2)",
  "T1 construct": "gene CD207; array protein; construct only in supplement",
  "T1 sequence (F7HNH2 1-328)": "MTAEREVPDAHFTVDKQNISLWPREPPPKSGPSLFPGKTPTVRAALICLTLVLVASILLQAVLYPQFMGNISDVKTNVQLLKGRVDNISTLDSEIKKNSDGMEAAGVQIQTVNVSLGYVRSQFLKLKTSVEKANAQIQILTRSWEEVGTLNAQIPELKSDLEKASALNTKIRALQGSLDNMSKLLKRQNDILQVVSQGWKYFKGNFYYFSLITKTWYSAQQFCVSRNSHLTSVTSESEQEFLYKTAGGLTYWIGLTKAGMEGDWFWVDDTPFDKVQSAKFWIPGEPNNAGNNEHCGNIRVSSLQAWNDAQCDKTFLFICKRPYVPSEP",
  "test": "glycan microarray",
  "assay_type": "binding",
  "conditions": "labelled compound (FAA probe, immobilised)",
  "data": [
    {"smiles": "CC(=O)N[C@H]1[C@H](O[C@H]2[C@H](O)[C@@H](NC(C)=O)C(O)O[C@@H]2CO)O[C@H](CO)[C@@H](O[C@@H]2O[C@H](CO[C@H]3O[C@H](CO[C@H]4O[C@H](CO)[C@@H](O)[C@H](O)[C@@H]4O[C@H]4O[C@H](CO)[C@@H](O)[C@H](O)[C@@H]4O)[C@@H](O)[C@H](O[C@H]4O[C@H](CO)[C@@H](O)[C@H](O)[C@@H]4O[C@H]4O[C@H](CO)[C@@H](O)[C@H](O)[C@@H]4O)[C@@H]3O)[C@@H](O)[C@H](O[C@H]3O[C@H](CO)[C@@H](O)[C@H](O)[C@@H]3O[C@H]3O[C@H](CO)[C@@H](O)[C@H](O)[C@@H]3O[C@H]3O[C@H](CO)[C@@H](O)[C@H](O)[C@@H]3O)[C@@H]2O)[C@@H]1O", "note": "(stereo partly shown) [Man9GlcNAc2]", "values": [
      {"measurement": "glycan microarray", "value": "rhesus Langerin bound almost exclusively to Man9GlcNAc2"}
    ]}
  ]
}
